US20230113037A1 (Bayer Aktiengesellschaft, priority 2019, published 2023)
Like-named read-outs stand apart in the source and are kept apart here.

Columns and labels:
AHR [1] = biological target: T1, AHR (Homo sapiens, UniProt P35869); test: In vitro assay 1: antagonism in human cell line (AHR transactivation, firefly luciferase reporter, kynurenic acid prestimulated); format: cell-based; conditions: AHR Antagonism Human IC50 [M], firefly luciferase reporter
T1 construct: U87 MG glioblastoma cells (ATCC #HTB-14) endogenously expressing AHR; endogenous in cells; host or cells: U87 MG glioblastoma cells (ATCC #HTB-14)
T1 sequence (P35869 11-848): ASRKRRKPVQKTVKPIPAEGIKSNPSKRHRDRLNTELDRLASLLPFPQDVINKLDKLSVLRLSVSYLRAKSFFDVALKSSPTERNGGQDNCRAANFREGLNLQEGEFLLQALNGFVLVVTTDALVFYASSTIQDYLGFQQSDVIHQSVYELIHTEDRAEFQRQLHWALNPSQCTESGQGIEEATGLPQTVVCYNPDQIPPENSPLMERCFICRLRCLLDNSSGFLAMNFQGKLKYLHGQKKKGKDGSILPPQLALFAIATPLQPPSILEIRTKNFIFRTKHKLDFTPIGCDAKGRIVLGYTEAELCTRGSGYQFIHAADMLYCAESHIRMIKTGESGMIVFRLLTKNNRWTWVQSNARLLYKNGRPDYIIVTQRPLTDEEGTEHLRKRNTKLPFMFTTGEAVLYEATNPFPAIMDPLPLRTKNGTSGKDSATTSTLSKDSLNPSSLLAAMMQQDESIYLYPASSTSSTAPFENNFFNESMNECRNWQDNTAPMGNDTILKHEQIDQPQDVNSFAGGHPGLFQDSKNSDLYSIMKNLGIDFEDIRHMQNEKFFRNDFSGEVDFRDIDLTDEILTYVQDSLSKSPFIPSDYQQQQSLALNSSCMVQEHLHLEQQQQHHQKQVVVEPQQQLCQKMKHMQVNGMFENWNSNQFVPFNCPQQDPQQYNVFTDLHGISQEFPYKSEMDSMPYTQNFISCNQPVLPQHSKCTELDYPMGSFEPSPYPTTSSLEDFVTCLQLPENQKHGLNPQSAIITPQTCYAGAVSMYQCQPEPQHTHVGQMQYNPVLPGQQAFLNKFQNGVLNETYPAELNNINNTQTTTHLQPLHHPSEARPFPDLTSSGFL
In short: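 U87 MG glioblastoma cells with endogenous AHR, stably carrying a DRE-driven firefly luciferase reporter and constitutive Renilla reporter, prestimulated with kynurenic acid before compound addition. Firefly and Renilla read by dual luciferase; Renilla flags toxicity; normalized to controls (150 μM kynurenic acid + 5 μM staurosporine as full inhibition); repeat values averaged or median.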

AHR [2] = biological target: T2, AHR (Mus musculus, UniProt P30561); test: In vitro assay 3: antagonism in mouse cell line (AHR transactivation, firefly luciferase reporter, kynurenic acid prestimulated); format: cell-based
T2 sequence (P30561 1-848 P471L/N533S/M589L): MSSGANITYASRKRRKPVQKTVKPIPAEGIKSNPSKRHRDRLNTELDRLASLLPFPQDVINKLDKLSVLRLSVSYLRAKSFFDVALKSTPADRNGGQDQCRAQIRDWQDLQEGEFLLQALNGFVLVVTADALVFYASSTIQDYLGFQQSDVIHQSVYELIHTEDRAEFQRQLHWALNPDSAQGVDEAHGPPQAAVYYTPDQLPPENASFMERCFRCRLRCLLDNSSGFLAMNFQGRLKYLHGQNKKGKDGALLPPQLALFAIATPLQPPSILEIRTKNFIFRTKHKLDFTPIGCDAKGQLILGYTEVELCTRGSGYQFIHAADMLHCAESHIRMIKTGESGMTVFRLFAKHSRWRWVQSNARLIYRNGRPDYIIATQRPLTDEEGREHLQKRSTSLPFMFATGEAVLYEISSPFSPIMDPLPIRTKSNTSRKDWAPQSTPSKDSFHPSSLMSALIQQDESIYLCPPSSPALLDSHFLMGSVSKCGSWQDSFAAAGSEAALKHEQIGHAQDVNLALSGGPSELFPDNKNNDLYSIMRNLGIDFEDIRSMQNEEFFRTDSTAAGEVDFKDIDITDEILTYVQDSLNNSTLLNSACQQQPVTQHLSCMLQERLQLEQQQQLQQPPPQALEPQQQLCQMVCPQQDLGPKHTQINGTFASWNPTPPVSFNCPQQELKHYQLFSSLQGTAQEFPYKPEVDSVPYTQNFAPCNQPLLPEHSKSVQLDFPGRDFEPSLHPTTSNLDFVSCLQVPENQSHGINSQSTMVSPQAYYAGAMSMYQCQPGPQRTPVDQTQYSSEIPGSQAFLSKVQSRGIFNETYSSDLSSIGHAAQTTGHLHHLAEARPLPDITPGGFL
In short: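 Mouse cells stably carrying a DRE-driven, AHR-inducible firefly luciferase reporter were prestimulated with the endogenous agonist kynurenic acid before compound addition. Luciferase activity was measured by luminescence and normalized to positive and negative controls, with cells lacking kynurenic acid serving as full-inhibition control. Repeat tests are reported as mean or median.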

[3] = Hepa 1c1c7 cells, 200 μM kynurenic acid, 20 hours, firefly luciferase reporter, read-out: AHR Antagonism Mouse IC50

SMILES	IC50 (AHR [1]) [M]	IC50 (AHR [2]; [3]) [µM]	IC50 (AHR [2]; read-out: AHR Antagonism Mouse IC50, Hepa 1c1c7 cells, 200 μM kynurenic acid, 20 hours, firefly luciferase reporter) [µM]
C[C@@H](Nc1nc2c(Br)cccc2c2nc(-c3cnn(C)c3)nn12)C(=O)N1CCN(C(=O)OC(C)(C)C)CC1 [Example 886, tert-butyl 4-{N-[7-bromo-2-(1-methyl-1H-pyrazol-4-yl)[1,2,4]triazolo[1,5-c]quinazolin-5-yl]-D-alanyl}piperazine-1-carboxylate]	6.83e-08	0.0993	
COc1ccc(-c2nc3c4cccc(Br)c4nc(N[C@H](C)C(=O)NCCN(C)C(=O)OC(C)(C)C)n3n2)cc1 [Example 887, tert-butyl [2-({N-[7-bromo-2-(4-methoxyphenyl)[1,2,4]triazolo[1,5-c]quinazolin-5-yl]-D-alanyl}amino)ethyl]methylcarbamate]	1.37e-09		0.0101
C[C@@H](Nc1nc2c(Br)cccc2c2nc(-c3cnn(C)c3)nn12)C(=O)NCCN1CCN(C(=O)OC(C)(C)C)CC1 [Example 891, tert-butyl 4-[2-({N-[7-bromo-2-(1-methyl-1H-pyrazol-4-yl)[1,2,4]triazolo[1,5-c]quinazolin-5-yl]-D-alanyl}amino)ethyl]piperazine-1-carboxylate]	5.75e-08	0.0668	
COC(=O)N1CCN(C(=O)[C@@H](C)Nc2nc3c(Br)cccc3c3nc(-c4cnn(C)c4)nn23)CC1 [Example 893, methyl 4-{N-[7-bromo-2-(1-methyl-1H-pyrazol-4-yl)[1,2,4]triazolo[1,5-c]quinazolin-5-yl]-D-alanyl}piperazine-1-carboxylate]	2.65e-08	0.0182	
C[C@@H](Nc1nc2c(Br)cccc2c2nc(-c3cnn(C)c3)nn12)C(=O)NCCN1CCCCC1 [Example 896, N^2-[7-bromo-2-(1-methyl-1H-pyrazol-4-yl)[1,2,4]triazolo[1,5-c]quinazolin-5-yl]-N-[2-(piperidin-1-yl)ethyl]-D-alaninamide]	2.72e-07	0.133	
COc1ccc(-c2nc3c4ccccc4nc(N[C@H](C)C(=O)NCCN4CCCCC4)n3n2)cc1 [Example 897, N^2-[2-(4-methoxyphenyl)[1,2,4]triazolo[1,5-c]quinazolin-5-yl]-N-[2-(piperidin-1-yl)ethyl]-D-alaninamide]	4.02e-08	0.0285	
C[C@@H](Nc1nc2c(Br)cccc2c2nc(-c3cnn(C)c3)nn12)C(=O)N1C[C@H]2C[C@@H]1CO2 [Example 898, (2R)-2-{[7-bromo-2-(1-methyl-1H-pyrazol-4-yl)[1,2,4]triazolo[1,5-c]quinazolin-5-yl]amino}-1-[(1R,4R)-2-oxa-5-azabicyclo[2.2.1]heptan-5-yl]propan-1-one]	1.2e-07	0.0252	
C[C@@H](Nc1nc2c(Br)cccc2c2nc(-c3cnn(C)c3)nn12)C(=O)N1C[C@@H]2C[C@H]1CN2C [Example 900]	4.4e-08	0.0723	
C[C@@H](Nc1nc2c(Br)cccc2c2nc(-c3cnn(C)c3)nn12)C(=O)N1C[C@H]2C[C@@H]1CN2C [Example 902]	8e-08	0.095	

More lines, in order of falling IC50 (AHR [1]), values ahead:

IC50 (AHR [1]) [M]	IC50 (AHR [2]; [3]) [µM]	SMILES	IC50 (AHR [2]; read-out: AHR Antagonism Mouse IC50, Hepa 1c1c7 cells, 200 μM kynurenic acid, 20 hours, firefly luciferase reporter) [µM]
1.73e-08	0.0248	C[C@@H](Nc1nc2c(Br)cccc2c2nc(-c3cnn(C)c3)nn12)C(=O)NCCN(C)C(=O)OC(C)(C)C [Example 888, tert-butyl [2-({N-[7-bromo-2-(1-methyl-1H-pyrazol-4-yl)[1,2,4]triazolo[1,5-c]quinazolin-5-yl]-D-alanyl}amino)ethyl]methylcarbamate]	
1.18e-08	0.0173	COc1ccc(-c2nc3c4cccc(Br)c4nc(N[C@H](C)C(=O)NCCN4CCCCC4)n3n2)cc1 [Example 895, N^2-[7-bromo-2-(4-methoxyphenyl)[1,2,4]triazolo[1,5-c]quinazolin-5-yl]-N-[2-(piperidin-1-yl)ethyl]-D-alaninamide]	
6.66e-09	0.00831	COc1ccc(-c2nc3c4ccccc4nc(N[C@H](C)C(=O)NCCN4CCN(C(=O)OC(C)(C)C)CC4)n3n2)cc1 [Example 884, tert-butyl 4-[2-({N-[2-(4-methoxyphenyl)[1,2,4]triazolo[1,5-c]quinazolin-5-yl]-D-alanyl}amino)ethyl]piperazine-1-carboxylate]	
4.09e-09	0.00659	COc1ccc(-c2nc3c4cccc(Br)c4nc(N[C@H](C)C(=O)N4C[C@H]5C[C@@H]4CN5C)n3n2)cc1 [Example 903, (2R)-2-{[7-bromo-2-(4-methoxyphenyl)[1,2,4]triazolo[1,5-c]quinazolin-5-yl]amino}-1-[(1R,4R)-5-methyl-2,5-diazabicyclo[2.2.1]heptan-2-yl]propan-1-one]	
4.05e-09	0.0093	COc1ccc(-c2nc3c4cccc(Br)c4nc(N[C@H](C)C(=O)NCCN4CCN(C(=O)OC(C)(C)C)CC4)n3n2)cc1 [Example 890, tert-butyl 4-[2-({N-[7-bromo-2-(4-methoxyphenyl)[1,2,4]triazolo[1,5-c]quinazolin-5-yl]-D-alanyl}amino)ethyl]piperazine-1-carboxylate]	
3.9e-09	0.00445	COc1ccc(-c2nc3c4ccccc4nc(N[C@H](C)C(=O)NCCN(C)C(=O)OC(C)(C)C)n3n2)cc1 [Example 889, tert-butyl [2-({N-[2-(4-methoxyphenyl)[1,2,4]triazolo[1,5-c]quinazolin-5-yl]-D-alanyl}amino)ethyl]methylcarbamate]	
2.88e-09	0.00479	COc1ccc(-c2nc3c4cccc(Br)c4nc(N[C@H](C)C(=O)N4C[C@@H]5C[C@H]4CN5C)n3n2)cc1 [Example 901, (2R)-2-{[7-bromo-2-(4-methoxyphenyl)[1,2,4]triazolo[1,5-c]quinazolin-5-yl]amino}-1-[(1S,4S)-5-methyl-2,5-diazabicyclo[2.2.1]heptan-2-yl]propan-1-one]	
2.01e-09	0.00133	COC(=O)N1CCN(C(=O)[C@@H](C)Nc2nc3c(Br)cccc3c3nc(-c4ccc(OC)cc4)nn23)CC1 [Example 894, methyl 4-{N-[7-bromo-2-(4-methoxyphenyl)[1,2,4]triazolo[1,5-c]quinazolin-5-yl]-D-alanyl}piperazine-1-carboxylate]	
1.24e-09	0.00294	COCCNC(=O)[C@@H](C)Nc1nc2c(Br)cccc2c2nc(-c3ccc(OC)cc3)nn12 [Example 885, N^2-[7-bromo-2-(4-methoxyphenyl)[1,2,4]triazolo[1,5-c]quinazolin-5-yl]-N-(2-methoxyethyl)-D-alaninamide]	
1.12e-09	0.000885	COc1ccc(-c2nc3c4cccc(Br)c4nc(N[C@H](C)C(=O)N4C[C@H]5C[C@@H]4CO5)n3n2)cc1 [Example 899, (2R)-2-{[7-bromo-2-(4-methoxyphenyl)[1,2,4]triazolo[1,5-c]quinazolin-5-yl]amino}-1-[(1R,4R)-2-oxa-5-azabicyclo[2.2.1]heptan-5-yl]propan-1-one]	
